Measurements published in ChEMBL document CHEMBL1151757, “Synthesis, radiosynthesis, and biological evaluation of fluorine-18-labeled 2beta-carbo(fluoroalkoxy)-3beta-(3'-((Z)-2-haloethenyl)phenyl)nortropanes: candidate radioligands for in vivo imaging of the serotonin transporter with positron emission tomography” (J Med Chem, 2008).

Experiments:
[1] = Ratio of drug uptake in pons to cerebellum in anesthetized cynomolgus monkey after 105 mins postinjection; assay type: ADME, organism-based, Macaca fascicularis; conditions: in vivo, 1.75 h
[2] = Ratio of drug uptake in pons to cerebellum in anesthetized cynomolgus monkey after 145 mins postinjection; assay type: ADME, organism-based, Macaca fascicularis; conditions: in vivo
[3] = Ratio of drug uptake in medulla to cerebellum in anesthetized cynomolgus monkey after 1.5 mins postinjection; assay type: ADME, organism-based, Macaca fascicularis; conditions: in vivo, 0.025 h
[4] = Ratio of drug uptake in medulla to cerebellum in anesthetized cynomolgus monkey after 65 mins postinjection; assay type: ADME, organism-based, Macaca fascicularis; conditions: in vivo
[5] = Ratio of drug uptake in medulla to cerebellum in anesthetized cynomolgus monkey after 135 mins postinjection; assay type: ADME, organism-based, Macaca fascicularis; conditions: in vivo, 2.25 h
[6] = Ratio of drug uptake in medulla to cerebellum in anesthetized cynomolgus monkey after 185 mins postinjection; assay type: ADME, organism-based, Macaca fascicularis; conditions: in vivo
[7] = Drug uptake in anesthetized cynomolgus monkey brain occipital lobe after 4.5 mins postinjection; assay type: ADME, organism-based, Macaca fascicularis; conditions: in vivo, 0.075 h
[8] = Drug uptake in anesthetized cynomolgus monkey brain occipital lobe after 55 mins postinjection; assay type: ADME, organism-based, Macaca fascicularis; conditions: in vivo
[9] = Drug uptake in anesthetized cynomolgus monkey brain occipital lobe after 105 mins postinjection; assay type: ADME, organism-based, Macaca fascicularis; conditions: in vivo, 1.75 h
[10] = Drug uptake in anesthetized cynomolgus monkey brain occipital lobe after 175 mins postinjection; assay type: ADME, organism-based, Macaca fascicularis; conditions: in vivo
[11] = Drug uptake in anesthetized cynomolgus monkey brain occipital lobe after 235 mins postinjection; assay type: ADME, organism-based, Macaca fascicularis; conditions: in vivo
[12] = Drug uptake in anesthetized cynomolgus monkey brain frontal lobe after 2.5 mins postinjection; assay type: ADME, organism-based, Macaca fascicularis; conditions: in vivo
[13] = Drug uptake in anesthetized cynomolgus monkey brain frontal lobe after 6.5 mins postinjection; assay type: ADME, organism-based, Macaca fascicularis; conditions: in vivo
[14] = Drug uptake in anesthetized cynomolgus monkey brain frontal lobe after 22.5 mins postinjection; assay type: ADME, organism-based, Macaca fascicularis; conditions: in vivo, 0.375 h
[15] = Drug uptake in anesthetized cynomolgus monkey brain frontal lobe after 27.5 mins postinjection; assay type: ADME, organism-based, Macaca fascicularis; conditions: in vivo
[16] = Drug uptake in anesthetized cynomolgus monkey brain frontal lobe after 95 mins postinjection; assay type: ADME, organism-based, Macaca fascicularis; conditions: in vivo
[17] = Drug uptake in anesthetized cynomolgus monkey brain frontal lobe after 155 mins postinjection; assay type: ADME, organism-based, Macaca fascicularis; conditions: in vivo
[18] = Ratio of drug uptake in midbrain to cerebellum in anesthetized cynomolgus monkey after 225 mins postinjection; assay type: ADME, organism-based, Macaca fascicularis; conditions: in vivo, 3.75 h
[19] = Ratio of drug uptake in occipital lobe to cerebellum in anesthetized cynomolgus monkey after 105 mins postinjection; assay type: ADME, organism-based, Macaca fascicularis; conditions: in vivo, 1.75 h
[20] = Ratio of drug uptake in occipital lobe to cerebellum in anesthetized cynomolgus monkey after 115 mins postinjection; assay type: ADME, organism-based, Macaca fascicularis; conditions: in vivo
[21] = tested on: Putamen; test: Drug uptake in anesthetized cynomolgus monkey brain putamen after 225 mins postinjection; assay type: ADME, organism-based, Macaca fascicularis; conditions: in vivo, 3.75 h
[22] = tested on: Thalamus; test: Drug uptake in anesthetized cynomolgus monkey brain thalamus after 0.5 mins postinjection; assay type: ADME, organism-based, Macaca fascicularis; conditions: in vivo
[23] = Ratio of drug uptake in frontal lobe to cerebellum in anesthetized cynomolgus monkey after 75 mins postinjection; assay type: ADME, organism-based, Macaca fascicularis; conditions: in vivo, 1.25 h
[24] = tested on: Midbrain; test: Drug uptake in anesthetized cynomolgus monkey brain midbrain after 165 mins postinjection; assay type: ADME, organism-based, Macaca fascicularis; conditions: in vivo, 2.75 h
[25] = tested on: Thalamus; test: Drug uptake in anesthetized cynomolgus monkey brain thalamus after 205 mins postinjection; assay type: ADME, organism-based, Macaca fascicularis; conditions: in vivo
[26] = tested on: Midbrain; test: Drug uptake in anesthetized cynomolgus monkey brain midbrain after 185 mins postinjection; assay type: ADME, organism-based, Macaca fascicularis; conditions: in vivo
[27] = Drug uptake in anesthetized cynomolgus monkey brain occipital lobe after 205 mins postinjection; assay type: ADME, organism-based, Macaca fascicularis; conditions: in vivo
[28] = Drug uptake in anesthetized cynomolgus monkey brain cerebellum after 195 mins postinjection; assay type: ADME, organism-based, Macaca fascicularis; conditions: in vivo, 3.25 h
[29] = Ratio of drug uptake in frontal lobe to cerebellum in anesthetized cynomolgus monkey after 235 mins postinjection; assay type: ADME, organism-based, Macaca fascicularis; conditions: in vivo
[30] = Ratio of drug uptake in frontal lobe to cerebellum in anesthetized cynomolgus monkey after 205 mins postinjection; assay type: ADME, organism-based, Macaca fascicularis; conditions: in vivo
[31] = tested on: Putamen; test: Drug uptake in anesthetized cynomolgus monkey brain putamen after 205 mins postinjection; assay type: ADME, organism-based, Macaca fascicularis; conditions: in vivo
[32] = tested on: Thalamus; test: Drug uptake in anesthetized cynomolgus monkey brain thalamus after 185 mins postinjection; assay type: ADME, organism-based, Macaca fascicularis; conditions: in vivo
[33] = tested on: Pons; test: Drug uptake in anesthetized cynomolgus monkey brain pons after 155 mins postinjection; assay type: ADME, organism-based, Macaca fascicularis; conditions: in vivo
[34] = tested on: Pons; test: Drug uptake in anesthetized cynomolgus monkey brain pons after 175 mins postinjection; assay type: ADME, organism-based, Macaca fascicularis; conditions: in vivo
[35] = tested on: Medulla; test: Drug uptake in anesthetized cynomolgus monkey brain medulla after 2.5 mins postinjection; assay type: ADME, organism-based, Macaca fascicularis; conditions: in vivo
[36] = tested on: Medulla; test: Drug uptake in anesthetized cynomolgus monkey brain medulla after 6.5 mins postinjection; assay type: ADME, organism-based, Macaca fascicularis; conditions: in vivo
[37] = tested on: Medulla; test: Drug uptake in anesthetized cynomolgus monkey brain medulla after 22.5 mins postinjection; assay type: ADME, organism-based, Macaca fascicularis; conditions: in vivo, 0.375 h
[38] = Ratio of drug uptake in caudate to cerebellum in anesthetized cynomolgus monkey after 225 mins postinjection; assay type: ADME, organism-based, Macaca fascicularis; conditions: in vivo, 3.75 h
[39] = Drug uptake in anesthetized cynomolgus monkey brain cerebellum after 4.5 mins postinjection; assay type: ADME, organism-based, Macaca fascicularis; conditions: in vivo, 0.075 h
[40] = Drug uptake in anesthetized cynomolgus monkey brain cerebellum after 12.5 mins postinjection; assay type: ADME, organism-based, Macaca fascicularis; conditions: in vivo
[41] = Drug uptake in anesthetized cynomolgus monkey brain cerebellum after 35 mins postinjection; assay type: ADME, organism-based, Macaca fascicularis; conditions: in vivo
[42] = Drug uptake in anesthetized cynomolgus monkey brain cerebellum after 95 mins postinjection; assay type: ADME, organism-based, Macaca fascicularis; conditions: in vivo
[43] = Drug uptake in anesthetized cynomolgus monkey brain cerebellum after 225 mins postinjection; assay type: ADME, organism-based, Macaca fascicularis; conditions: in vivo, 3.75 h
[44] = Drug uptake in anesthetized cynomolgus monkey brain cerebellum after 235 mins postinjection; assay type: ADME, organism-based, Macaca fascicularis; conditions: in vivo
[45] = Ratio of drug uptake in putamen to cerebellum in anesthetized cynomolgus monkey after 65 mins postinjection; assay type: ADME, organism-based, Macaca fascicularis; conditions: in vivo
[46] = Ratio of drug uptake in thalamus to cerebellum in anesthetized cynomolgus monkey after 155 mins postinjection; assay type: ADME, organism-based, Macaca fascicularis; conditions: in vivo
[47] = tested on: Caudate; test: Drug uptake in anesthetized cynomolgus monkey brain caudate after 0.5 mins postinjection; assay type: ADME, organism-based, Macaca fascicularis, Caudate nucleus; conditions: in vivo
[48] = tested on: Caudate; test: Drug uptake in anesthetized cynomolgus monkey brain caudate after 3.5 mins postinjection; assay type: ADME, organism-based, Macaca fascicularis, Caudate nucleus; conditions: in vivo
[49] = tested on: Caudate; test: Drug uptake in anesthetized cynomolgus monkey brain caudate after 4.5 mins postinjection; assay type: ADME, organism-based, Macaca fascicularis, Caudate nucleus; conditions: in vivo, 0.075 h
[50] = tested on: Caudate; test: Drug uptake in anesthetized cynomolgus monkey brain caudate after 12.5 mins postinjection; assay type: ADME, organism-based, Macaca fascicularis, Caudate nucleus; conditions: in vivo
[51] = tested on: Caudate; test: Drug uptake in anesthetized cynomolgus monkey brain caudate after 15.5 mins postinjection; assay type: ADME, organism-based, Macaca fascicularis, Caudate nucleus; conditions: in vivo
[52] = tested on: Caudate; test: Drug uptake in anesthetized cynomolgus monkey brain caudate after 115 mins postinjection; assay type: ADME, organism-based, Macaca fascicularis, Caudate nucleus; conditions: in vivo
[53] = tested on: Caudate; test: Drug uptake in anesthetized cynomolgus monkey brain caudate after 125 mins postinjection; assay type: ADME, organism-based, Macaca fascicularis, Caudate nucleus; conditions: in vivo
[54] = tested on: Caudate; test: Drug uptake in anesthetized cynomolgus monkey brain caudate after 135 mins postinjection; assay type: ADME, organism-based, Macaca fascicularis, Caudate nucleus; conditions: in vivo, 2.25 h
[55] = tested on: Caudate; test: Drug uptake in anesthetized cynomolgus monkey brain caudate after 175 mins postinjection; assay type: ADME, organism-based, Macaca fascicularis, Caudate nucleus; conditions: in vivo
[56] = tested on: Putamen; test: Drug uptake in anesthetized cynomolgus monkey brain putamen after 15.5 mins postinjection; assay type: ADME, organism-based, Macaca fascicularis; design: unit not given here; conditions: in vivo
[57] = tested on: Putamen; test: Drug uptake in anesthetized cynomolgus monkey brain putamen after 65 mins postinjection; assay type: ADME, organism-based, Macaca fascicularis; design: unit not given here; conditions: in vivo
[58] = tested on: Putamen; test: Drug uptake in anesthetized cynomolgus monkey brain putamen after 95 mins postinjection; assay type: ADME, organism-based, Macaca fascicularis; design: unit not given here; conditions: in vivo
[59] = tested on: Thalamus; test: Drug uptake in anesthetized cynomolgus monkey brain thalamus after 75 mins postinjection; assay type: ADME, organism-based, Macaca fascicularis; design: unit not given here; conditions: in vivo, 1.25 h
[60] = tested on: Thalamus; test: Drug uptake in anesthetized cynomolgus monkey brain thalamus after 175 mins postinjection; assay type: ADME, organism-based, Macaca fascicularis; design: unit not given here; conditions: in vivo
[61] = tested on: Thalamus; test: Drug uptake in anesthetized cynomolgus monkey brain thalamus after 215 mins postinjection; assay type: ADME, organism-based, Macaca fascicularis; design: unit not given here; conditions: in vivo
[62] = tested on: Midbrain; test: Drug uptake in anesthetized cynomolgus monkey brain midbrain after 3.5 mins postinjection; assay type: ADME, organism-based, Macaca fascicularis; design: unit not given here; conditions: in vivo
[63] = tested on: Midbrain; test: Drug uptake in anesthetized cynomolgus monkey brain midbrain after 9.5 mins postinjection; assay type: ADME, organism-based, Macaca fascicularis; design: unit not given here; conditions: in vivo
[64] = tested on: Midbrain; test: Drug uptake in anesthetized cynomolgus monkey brain midbrain after 15.5 mins postinjection; assay type: ADME, organism-based, Macaca fascicularis; design: unit not given here; conditions: in vivo
[65] = tested on: Midbrain; test: Drug uptake in anesthetized cynomolgus monkey brain midbrain after 22.5 mins postinjection; assay type: ADME, organism-based, Macaca fascicularis; design: unit not given here; conditions: in vivo, 0.375 h
[66] = tested on: Midbrain; test: Drug uptake in anesthetized cynomolgus monkey brain midbrain after 65 mins postinjection; assay type: ADME, organism-based, Macaca fascicularis; design: unit not given here; conditions: in vivo
[67] = tested on: Midbrain; test: Drug uptake in anesthetized cynomolgus monkey brain midbrain after 95 mins postinjection; assay type: ADME, organism-based, Macaca fascicularis; design: unit not given here; conditions: in vivo
[68] = Ratio of drug uptake in midbrain to cerebellum in anesthetized cynomolgus monkey after 2.5 mins postinjection; assay type: ADME, organism-based, Macaca fascicularis; conditions: in vivo

O=C(OCCC[18F])C1C2CCC(CC1c1cccc(/C=C\I)c1)N2 (stereo not drawn)
Ratio [1]: 1.2 | Ratio [2]: 1.6 | Ratio [3]: 1.3 | Ratio [4]: 1.2 | Ratio [5]: 1.7 | Ratio [6]: 1.8 | Drug uptake [7]: 2.06 | Drug uptake [8]: 4 | Drug uptake [9]: 3.18 | Drug uptake [10]: 2.55 | Drug uptake [11]: 1.99 | Drug uptake [12]: 0.5 | Drug uptake [13]: 1.88 | Drug uptake [14]: 2.64 | Drug uptake [15]: 2.72 | Drug uptake [16]: 2.68 | Drug uptake [17]: 2.33 | Ratio [18]: 2 | Ratio [19]: 1 | Ratio [20]: 1 | Drug uptake [21]: 3.05 | Drug uptake [22]: 0.01 | Ratio [23]: 0.7 | Drug uptake [24]: 4.26 | Drug uptake [25]: 3.14 | Drug uptake [26]: 4.05 | Drug uptake [27]: 2.3 | Drug uptake [28]: 2.16 | Ratio [29]: 0.9 | Ratio [30]: 1 | Drug uptake [31]: 3.31 | Drug uptake [32]: 3.29 | Drug uptake [33]: 3.52 | Drug uptake [34]: 3.41 | Drug uptake [35]: 0.84 | Drug uptake [36]: 3.75 | Drug uptake [37]: 4.94 | Ratio [38]: 1.3 | Drug uptake [39]: 2.5 | Drug uptake [40]: 4.52 | Drug uptake [41]: 4.74 | Drug uptake [42]: 3.46 | Drug uptake [43]: 1.87 | Drug uptake [44]: 1.93 | Ratio [45]: 1.2 | Ratio [46]: 1.6 | Drug uptake [47]: 0.01 | Drug uptake [48]: 1.15 | Drug uptake [49]: 1.55 | Drug uptake [50]: 3 | Drug uptake [51]: 3.34 | Drug uptake [52]: 3.61 | Drug uptake [53]: 3.51 | Drug uptake [54]: 3.34 | Drug uptake [55]: 2.83 | Drug uptake [56]: 4.27 | Drug uptake [57]: 4.95 | Drug uptake [58]: 4.67 | Drug uptake [59]: 4.76 | Drug uptake [60]: 3.44 | Drug uptake [61]: 3.02 | Drug uptake [62]: 1.74 | Drug uptake [63]: 4 | Drug uptake [64]: 4.45 | Drug uptake [65]: 4.55 | Drug uptake [66]: 4.97 | Drug uptake [67]: 4.77 | Ratio [68]: 0.9
